Reference: US8609329B2, “FRET-based assay for screening modulators of receptor cycling” (Albany Medical College, priority 2007, dated 2013)

Tested on: LDL-R-LDL-C complexes
Test: Automated FRET imaging of LDL-C-BODIPY/LDL-C-DiI internalized into MDCK cells (organization of LDL-R/LDL-C complexes)
Format: cell-based
Protocol: MDCK cells were bound with LDL-C-BODIPY and LDL-C-DiI for 2 h at 4° C. or incubated for various times (5-8 min and 20-30 min) at 37° C. in the presence or absence of BafilomycinA 1 (BafA1), a specific vacuolar-type ATPase inhibitor. Images were collected using a LSM Zeiss 510META confocal microscope with 63×1.4NA oil lens, 512×512 pixel resolution, no filter, 2× zoom. Then images were processed using an integrated and automated ImageJ plugin, which includes background removal, PFRET algorithm, ROI selection and E % analysis (48). […]
First, images were background-subtracted and processed by PFRET software, which removed donor and acceptor SBT pixel-by-pixel on the basis of matched fluorescence levels between the double-label specimen and single-label reference specimens, using seven images; two single-label donor reference images (donor excitation/donor channel and acceptor channel); two single-label acceptor reference images (donor and acceptor excitation, both in the acceptor channel); three double-label images (donor excitation/donor and acceptor channel, acceptor excitation/acceptor emission. Elangovan et al., 2003; Wallrabe et al., 2003a,b). […] The pixel-by-pixel correction used to generate the processed FRET (PFRET) image was actually based on the average value of narrow fluorescence rangers, for more efficient running of the correction algorithm (Elangovan et al., 2003). […]

`CO/C1=C\C(C)=C\[C@@H](C)[C@@H](O)[C@@H](C)C/C(C)=C/C=C/[C@H](OC)[C@@H]([C@@H](C)[C@@H](O)[C@H](C)[C@@]2(O)C[C@@H](O)[C@H](C)[C@@H](C(C)C)O2)OC1=O` [BafA1, Bafilomycin A1] was tested, and the “organization of LDL-R-LDL-C complexes (clustered vs. random)” value (30 min internalization at 37° C., 100 nM BafA1) was “clustered organization” and the “dependency of E % on acceptor levels” value (LDL-C internalized at 37° C. for 30 min in the presence of 100 nM BafA1) was “clear independency from acceptor”.
